Measurements: the kinase profiling compilation of Christmann-Franck et al. (2016)

Key:
Test in all cases: KINOMEscan competition binding
Details in all cases: compound 10.0 µM
[1] = test system: ABL1 (human), P00519 [M351T]
ADCK4 (human) = ADCK4 (human) (UniProt Q96D53)
AKT2 (human) = AKT2 (human) (UniProt P31751)
CAMK1D (human) = CAMK1D (human) (UniProt Q8IU85)
CDK19 (human) = CDK19 (human) (UniProt Q9BWU1)
DCLK3 (human) = DCLK3 (human) (UniProt Q9C098)
EPHA3 (human) = EPHA3 (human) (UniProt P29320)
FGFR1 (human) = FGFR1 (human) (UniProt P11362)
FGFR3 (human) = FGFR3 (human) (UniProt P22607)
HCK (human) = HCK (human) (UniProt P08631)
ITK (human) = ITK (human) (UniProt Q08881)
[2] = molecular target: JAK2 JH1 catalytic (human) (UniProt O60674)
[3] = test system: KIT (human), P10721 [D816V]
LTK (human) = LTK (human) (UniProt P29376)
MAP3K12 (human) = MAP3K12 (human) (UniProt Q12852)
MAP4K1 (human) = MAP4K1 (human) (UniProt Q92918)
MAP4K2 (human) = MAP4K2 (human) (UniProt Q12851)
MAPK15 (human) = MAPK15 (human) (UniProt Q8TD08)
MAPK8 (human) = MAPK8 (human) (UniProt P45983)
MARK4 (human) = MARK4 (human) (UniProt Q96L34)
MUSK (human) = MUSK (human) (UniProt O15146)
MYLK (human) = MYLK (human) (UniProt Q15746)
MYLK2 (human) = MYLK2 (human) (UniProt Q9H1R3)
NLK (human) = NLK (human) (UniProt Q9UBE8)
NTRK3 (human) = NTRK3 (human) (UniProt Q16288)
PAK4 (human) = PAK4 (human) (UniProt O96013)
PHKG1 (human) = PHKG1 (human) (UniProt Q16816)
PRKCH (human) = PRKCH (human) (UniProt P24723)
PRKG1 (human) = PRKG1 (human) (UniProt Q13976)
PRKG2 (human) = PRKG2 (human) (UniProt Q13237)
PTK2B (human) = PTK2B (human) (UniProt Q14289)
RPS6KA5 KD1 (human) = RPS6KA5 KD1 (human) (UniProt O75582)
SIK1 (human) = SIK1 (human) (UniProt P57059)
SRPK2 (human) = SRPK2 (human) (UniProt P78362)
STK32B (human) = STK32B (human) (UniProt Q9NY57)
TAOK3 (human) = TAOK3 (human) (UniProt Q9H2K8)
TEC (human) = TEC (human) (UniProt P42680)
TESK1 (human) = TESK1 (human) (UniProt Q15569)
TNK1 (human) = TNK1 (human) (UniProt Q13470)
[4] = molecular target: TYK2 JH1 catalytic (human) (UniProt P29597)

Chain of TESK1 (human) (Q15569 whole entry, looked up): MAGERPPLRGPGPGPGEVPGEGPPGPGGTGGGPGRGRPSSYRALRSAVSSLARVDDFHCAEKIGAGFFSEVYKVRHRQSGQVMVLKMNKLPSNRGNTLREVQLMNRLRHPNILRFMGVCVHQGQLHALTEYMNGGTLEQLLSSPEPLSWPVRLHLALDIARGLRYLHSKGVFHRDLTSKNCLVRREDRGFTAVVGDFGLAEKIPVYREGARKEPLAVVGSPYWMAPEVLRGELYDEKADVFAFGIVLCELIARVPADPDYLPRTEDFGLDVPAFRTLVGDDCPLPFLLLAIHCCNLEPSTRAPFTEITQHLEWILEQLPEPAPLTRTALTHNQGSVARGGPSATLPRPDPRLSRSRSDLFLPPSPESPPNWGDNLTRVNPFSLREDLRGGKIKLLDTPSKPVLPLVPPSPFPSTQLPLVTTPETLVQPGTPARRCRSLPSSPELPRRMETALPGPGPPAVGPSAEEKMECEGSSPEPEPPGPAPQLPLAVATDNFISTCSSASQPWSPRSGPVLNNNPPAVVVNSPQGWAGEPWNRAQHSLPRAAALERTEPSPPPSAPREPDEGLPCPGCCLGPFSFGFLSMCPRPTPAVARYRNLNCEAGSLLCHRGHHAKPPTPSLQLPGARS
Chain of MARK4 (human) (Q96L34 whole entry, looked up): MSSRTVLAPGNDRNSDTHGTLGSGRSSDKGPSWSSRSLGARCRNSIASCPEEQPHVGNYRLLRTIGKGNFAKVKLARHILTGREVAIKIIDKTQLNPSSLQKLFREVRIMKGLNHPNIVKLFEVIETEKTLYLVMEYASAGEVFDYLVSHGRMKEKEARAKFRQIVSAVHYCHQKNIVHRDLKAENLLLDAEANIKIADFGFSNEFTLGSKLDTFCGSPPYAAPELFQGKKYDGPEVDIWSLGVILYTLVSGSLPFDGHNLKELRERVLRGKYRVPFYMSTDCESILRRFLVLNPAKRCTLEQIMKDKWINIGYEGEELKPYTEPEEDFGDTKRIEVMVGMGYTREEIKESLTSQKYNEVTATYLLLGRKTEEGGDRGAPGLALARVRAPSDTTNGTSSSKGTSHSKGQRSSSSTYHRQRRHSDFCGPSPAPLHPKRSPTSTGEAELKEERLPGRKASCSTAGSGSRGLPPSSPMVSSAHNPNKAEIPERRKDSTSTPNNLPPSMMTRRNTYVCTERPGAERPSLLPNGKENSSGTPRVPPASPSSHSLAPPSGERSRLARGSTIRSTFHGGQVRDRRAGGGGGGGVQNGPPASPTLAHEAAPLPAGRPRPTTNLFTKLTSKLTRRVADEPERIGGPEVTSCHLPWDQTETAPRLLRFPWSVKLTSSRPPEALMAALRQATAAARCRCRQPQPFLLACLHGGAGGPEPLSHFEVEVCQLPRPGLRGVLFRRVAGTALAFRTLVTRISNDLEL
Chain of PTK2B (human) (Q14289 whole entry, looked up): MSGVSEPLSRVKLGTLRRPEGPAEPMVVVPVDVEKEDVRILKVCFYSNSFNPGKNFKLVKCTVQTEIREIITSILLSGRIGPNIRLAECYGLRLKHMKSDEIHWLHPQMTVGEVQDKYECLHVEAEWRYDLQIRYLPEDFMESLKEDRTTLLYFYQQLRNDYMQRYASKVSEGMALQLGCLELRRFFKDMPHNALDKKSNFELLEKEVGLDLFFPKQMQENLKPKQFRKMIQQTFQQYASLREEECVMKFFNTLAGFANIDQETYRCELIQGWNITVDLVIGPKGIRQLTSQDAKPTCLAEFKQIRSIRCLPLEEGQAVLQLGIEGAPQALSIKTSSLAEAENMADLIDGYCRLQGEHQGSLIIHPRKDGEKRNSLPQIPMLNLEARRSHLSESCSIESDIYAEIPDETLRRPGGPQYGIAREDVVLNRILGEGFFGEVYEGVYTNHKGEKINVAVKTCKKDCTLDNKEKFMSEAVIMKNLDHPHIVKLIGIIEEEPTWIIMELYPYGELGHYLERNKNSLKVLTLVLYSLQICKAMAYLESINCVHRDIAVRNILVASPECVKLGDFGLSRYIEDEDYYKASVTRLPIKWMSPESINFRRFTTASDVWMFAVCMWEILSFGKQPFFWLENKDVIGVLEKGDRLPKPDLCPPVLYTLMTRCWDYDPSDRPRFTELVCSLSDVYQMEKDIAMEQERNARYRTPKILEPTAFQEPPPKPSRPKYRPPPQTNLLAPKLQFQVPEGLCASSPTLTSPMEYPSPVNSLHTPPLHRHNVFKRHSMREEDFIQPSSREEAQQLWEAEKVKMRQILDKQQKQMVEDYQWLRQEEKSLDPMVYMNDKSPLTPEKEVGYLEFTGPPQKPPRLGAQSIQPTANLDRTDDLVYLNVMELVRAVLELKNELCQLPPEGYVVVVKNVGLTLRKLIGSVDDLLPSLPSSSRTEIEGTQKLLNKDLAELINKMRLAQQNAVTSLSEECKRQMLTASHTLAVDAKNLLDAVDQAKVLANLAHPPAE
Chain of TNK1 (human) (Q13470 whole entry, looked up): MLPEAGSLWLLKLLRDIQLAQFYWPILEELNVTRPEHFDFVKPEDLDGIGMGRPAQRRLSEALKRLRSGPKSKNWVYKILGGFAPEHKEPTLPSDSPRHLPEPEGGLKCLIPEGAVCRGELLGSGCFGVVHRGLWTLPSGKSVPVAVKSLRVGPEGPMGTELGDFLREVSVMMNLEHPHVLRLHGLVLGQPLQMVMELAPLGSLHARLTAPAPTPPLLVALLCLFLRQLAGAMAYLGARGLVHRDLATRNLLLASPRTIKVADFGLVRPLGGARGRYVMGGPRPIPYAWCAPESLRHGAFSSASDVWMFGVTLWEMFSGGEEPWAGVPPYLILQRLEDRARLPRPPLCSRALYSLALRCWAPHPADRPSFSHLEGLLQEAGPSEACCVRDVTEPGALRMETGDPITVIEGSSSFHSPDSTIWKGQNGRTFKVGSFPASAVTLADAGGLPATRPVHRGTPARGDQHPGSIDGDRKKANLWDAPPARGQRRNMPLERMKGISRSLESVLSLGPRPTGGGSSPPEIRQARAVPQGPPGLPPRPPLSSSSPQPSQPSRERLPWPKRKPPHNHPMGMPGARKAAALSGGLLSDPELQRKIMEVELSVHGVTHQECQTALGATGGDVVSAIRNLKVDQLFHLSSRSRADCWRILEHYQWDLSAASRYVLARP
Chain of NTRK3 (human) (Q16288 whole entry, looked up): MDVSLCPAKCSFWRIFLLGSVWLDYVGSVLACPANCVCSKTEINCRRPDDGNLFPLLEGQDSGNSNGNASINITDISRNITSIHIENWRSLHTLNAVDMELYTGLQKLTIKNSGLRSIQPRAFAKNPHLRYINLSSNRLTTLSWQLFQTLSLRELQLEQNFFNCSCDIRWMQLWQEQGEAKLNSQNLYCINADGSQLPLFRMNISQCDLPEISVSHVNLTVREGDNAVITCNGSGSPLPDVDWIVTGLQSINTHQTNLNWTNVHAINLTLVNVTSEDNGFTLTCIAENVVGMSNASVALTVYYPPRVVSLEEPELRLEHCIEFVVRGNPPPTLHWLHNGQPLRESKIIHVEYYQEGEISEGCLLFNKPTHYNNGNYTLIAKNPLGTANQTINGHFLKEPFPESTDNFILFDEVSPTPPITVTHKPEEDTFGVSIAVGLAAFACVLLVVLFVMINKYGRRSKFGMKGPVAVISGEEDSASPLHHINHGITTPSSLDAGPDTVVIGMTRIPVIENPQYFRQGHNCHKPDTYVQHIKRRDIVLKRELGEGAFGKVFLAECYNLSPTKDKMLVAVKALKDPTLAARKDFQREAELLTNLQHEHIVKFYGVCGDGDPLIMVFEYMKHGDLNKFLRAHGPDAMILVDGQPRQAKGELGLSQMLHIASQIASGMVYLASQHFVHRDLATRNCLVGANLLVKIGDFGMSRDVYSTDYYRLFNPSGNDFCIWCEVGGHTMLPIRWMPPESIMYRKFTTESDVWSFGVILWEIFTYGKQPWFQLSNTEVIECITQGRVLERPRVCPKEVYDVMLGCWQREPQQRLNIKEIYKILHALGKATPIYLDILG
Chain of MUSK (human) (O15146 whole entry, looked up): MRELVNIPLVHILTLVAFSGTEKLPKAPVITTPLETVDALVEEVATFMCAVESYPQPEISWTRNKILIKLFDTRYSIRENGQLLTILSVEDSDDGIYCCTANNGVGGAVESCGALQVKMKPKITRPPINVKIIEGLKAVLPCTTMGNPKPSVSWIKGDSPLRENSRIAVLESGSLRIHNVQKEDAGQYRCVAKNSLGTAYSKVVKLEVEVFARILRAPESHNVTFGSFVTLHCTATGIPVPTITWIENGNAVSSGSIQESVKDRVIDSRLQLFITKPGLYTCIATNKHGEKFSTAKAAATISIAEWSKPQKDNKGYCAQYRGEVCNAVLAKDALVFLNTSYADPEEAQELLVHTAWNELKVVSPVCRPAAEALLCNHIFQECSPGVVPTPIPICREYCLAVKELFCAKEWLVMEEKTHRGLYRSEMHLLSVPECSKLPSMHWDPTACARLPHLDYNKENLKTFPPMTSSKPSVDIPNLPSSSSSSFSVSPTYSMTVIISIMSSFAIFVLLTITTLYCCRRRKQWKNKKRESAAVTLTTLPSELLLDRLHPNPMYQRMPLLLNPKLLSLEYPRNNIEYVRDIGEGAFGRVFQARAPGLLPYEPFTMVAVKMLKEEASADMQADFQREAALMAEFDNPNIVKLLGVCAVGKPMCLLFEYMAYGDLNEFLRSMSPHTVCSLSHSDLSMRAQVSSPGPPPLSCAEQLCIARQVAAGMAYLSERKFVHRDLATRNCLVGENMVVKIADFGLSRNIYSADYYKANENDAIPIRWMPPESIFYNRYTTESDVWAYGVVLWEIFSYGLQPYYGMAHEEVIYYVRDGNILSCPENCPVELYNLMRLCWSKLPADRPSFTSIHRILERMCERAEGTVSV

Row | Structure (SMILES) | kinase still bound, per cent of control [1] [%] | kinase still bound, per cent of control (ADCK4 (human)) [%] | kinase still bound, per cent of control (AKT2 (human)) [%] | kinase still bound, per cent of control (CAMK1D (human)) [%] | kinase still bound, per cent of control (CDK19 (human)) [%] | kinase still bound, per cent of control (DCLK3 (human)) [%] | kinase still bound, per cent of control (EPHA3 (human)) [%] | kinase still bound, per cent of control (FGFR1 (human)) [%] | kinase still bound, per cent of control (FGFR3 (human)) [%] | kinase still bound, per cent of control (HCK (human)) [%] | kinase still bound, per cent of control (ITK (human)) [%] | kinase still bound, per cent of control [2] [%] | kinase still bound, per cent of control [3] [%] | kinase still bound, per cent of control (LTK (human)) [%] | kinase still bound, per cent of control (MAP3K12 (human)) [%] | kinase still bound, per cent of control (MAP4K1 (human)) [%] | kinase still bound, per cent of control (MAP4K2 (human)) [%] | kinase still bound, per cent of control (MAPK15 (human)) [%] | kinase still bound, per cent of control (MAPK8 (human)) [%] | kinase still bound, per cent of control (MARK4 (human)) [%] | also measured
1 | COc1cc(C(=O)NC2CCN(C)CC2)ccc1Nc1ncc2c(n1)N(C1CCCC1)C(C)CC(=O)N2C (stereo not given) | 100 | 100 | 100 | 17 | 100 | 100 | 100 | 100 | 100 | 100 | 100 | 100 | 100 | 100 | 100 | 100 | 100 | 100 | 100 | 100 | kinase still bound, per cent of control (MUSK (human)): 100%; kinase still bound, per cent of control (MYLK (human)): 2.8%; kinase still bound, per cent of control (MYLK2 (human)): 100%; kinase still bound, per cent of control (NLK (human)): 100%; kinase still bound, per cent of control (NTRK3 (human)): 100%; kinase still bound, per cent of control (PAK4 (human)): 100%; kinase still bound, per cent of control (PHKG1 (human)): 100%; kinase still bound, per cent of control (PRKCH (human)): 100%; kinase still bound, per cent of control (PRKG1 (human)): 100%; kinase still bound, per cent of control (PRKG2 (human)): 100%; kinase still bound, per cent of control (PTK2B (human)): 13%; kinase still bound, per cent of control (RPS6KA5 KD1 (human)): 100%; kinase still bound, per cent of control (SIK1 (human)): 100%; kinase still bound, per cent of control (SRPK2 (human)): 100%; kinase still bound, per cent of control (STK32B (human)): 100%; kinase still bound, per cent of control (TAOK3 (human)): 100%; kinase still bound, per cent of control (TEC (human)): 100%; kinase still bound, per cent of control (TESK1 (human)): 100%; kinase still bound, per cent of control (TNK1 (human)): 100%; kinase still bound, per cent of control [4]: 100%
2 | COc1cc(N2CCN(C)CC2)ccc1Nc1nc(N)c(C(=O)c2c(Cl)cccc2Cl)s1 | 84 | 81 | 100 | 24 | 93 | 14 | 82 | 94 | 99 | 100 | 91 | 80 | 92 | 4.2 | 97 | 90 | 77 | 84 | 81 | 82 | kinase still bound, per cent of control (MUSK (human)): 90%; kinase still bound, per cent of control (MYLK (human)): 18%; kinase still bound, per cent of control (MYLK2 (human)): 87%; kinase still bound, per cent of control (NLK (human)): 85%; kinase still bound, per cent of control (NTRK3 (human)): 100%; kinase still bound, per cent of control (PAK4 (human)): 100%; kinase still bound, per cent of control (PHKG1 (human)): 82%; kinase still bound, per cent of control (PRKCH (human)): 93%; kinase still bound, per cent of control (PRKG1 (human)): 100%; kinase still bound, per cent of control (PRKG2 (human)): 74%; kinase still bound, per cent of control (PTK2B (human)): 42%; kinase still bound, per cent of control (RPS6KA5 KD1 (human)): 100%; kinase still bound, per cent of control (SIK1 (human)): 86%; kinase still bound, per cent of control (SRPK2 (human)): 100%; kinase still bound, per cent of control (STK32B (human)): 76%; kinase still bound, per cent of control (TAOK3 (human)): 12%; kinase still bound, per cent of control (TEC (human)): 69%; kinase still bound, per cent of control (TESK1 (human)): 100%; kinase still bound, per cent of control (TNK1 (human)): 100%; kinase still bound, per cent of control [4]: 90%
3 | Cc1cc([C@@H](C)Nc2ccccc2C(=O)O)c2nc(N3CCOCC3)cc(=O)n2c1 | 94 | 79 | 86 | 100 | 91 | 85 | 79 | 89 | 83 | 100 | 98 | 62 | 81 | 95 | 85 | 100 | 56 | 100 | 100 | 100 | kinase still bound, per cent of control (MUSK (human)): 100%; kinase still bound, per cent of control (MYLK (human)): 70%; kinase still bound, per cent of control (MYLK2 (human)): 100%; kinase still bound, per cent of control (NLK (human)): 94%; kinase still bound, per cent of control (NTRK3 (human)): 98%; kinase still bound, per cent of control (PAK4 (human)): 100%; kinase still bound, per cent of control (PHKG1 (human)): 93%; kinase still bound, per cent of control (PRKCH (human)): 82%; kinase still bound, per cent of control (PRKG1 (human)): 100%; kinase still bound, per cent of control (PRKG2 (human)): 98%; kinase still bound, per cent of control (PTK2B (human)): 100%; kinase still bound, per cent of control (RPS6KA5 KD1 (human)): 81%; kinase still bound, per cent of control (SIK1 (human)): 100%; kinase still bound, per cent of control (SRPK2 (human)): 85%; kinase still bound, per cent of control (STK32B (human)): 71%; kinase still bound, per cent of control (TAOK3 (human)): 100%; kinase still bound, per cent of control (TEC (human)): 91%; kinase still bound, per cent of control (TESK1 (human)): 100%; kinase still bound, per cent of control (TNK1 (human)): 100%; kinase still bound, per cent of control [4]: 82%
